Data set [1] deals with PANC-1. Description: Synergistic antiproliferative activity against human PANC-1 cells expressing wild-type BRCA assessed as combination index at 2:1 ratio of compound:JQ1 incubated for 5 days by CCK8 assay. It counts as functional. The following applies: time 5 day.
Data set [2] relates to PANC-1. Description: Inhibition of colony formation in human PANC-1 cells at 1 uM incubated for 14 days by crystal violet staining based analysis. Type of data set: functional, cell-based. The following applies: time 14.0 day.
Data set [3] relates to PANC-1. Description: Induction of cell cycle arrest in human PANC-1 cells assessed as accumulation at G2 phase at 0.5 uM incubated for 24 hrs by PI staining based flow cytometry (reference value: 9.36 %). Type of data set: functional.
The subject of data set [4] is PANC-1. Description: Induction of apoptosis in human PANC-1 cells assessed as early apoptotic cells at 1 uM incubated for 48 hrs in presence of OL by Annexin V-FITC/PI staining based flow cytometry (reference value: 1.41 %). Type of data set: functional.
Data set [5] deals with PANC-1. Description: Induction of cell cycle arrest in human PANC-1 cells assessed as accumulation at S phase at 0.25 uM incubated for 24 hrs by PI staining based flow cytometry (reference value: 38.94 %). It counts as functional.
Data set [6] has as its system PANC-1. Description: Induction of apoptosis in human PANC-1 cells assessed as late apoptotic cells at 0.12 uM incubated for 48 hrs by Annexin V-FITC/PI staining based flow cytometry (reference value: 3.87 %). It counts as functional.
A short description of data set [7]: Toxicity in BALB/c mouse xenografted with human PANC-1 cells assessed as pathological changes in liver at 20 mg/kg, ip for 4 weeks administered for 5 days consecutively and 2 days without treatment on every week by H and E staining based analysis. It counts as organism-based. The settings on record: in vivo, 672 h.
Data set [8] deals with PANC-1. Description: Induction of cell cycle arrest in human PANC-1 cells assessed as accumulation at S phase at 0.5 uM incubated for 24 hrs by PI staining based flow cytometry (reference value: 38.94 %). Type of data set: functional.
Data set [9] deals with PANC-1. Description: Antitumor activity against human PANC-1 cells xenografted in BALB/c mouse at 20 mg/kg, ip for 4 weeks administered for 5 days consecutively and 2 days without treatment on every week in presence of OL relative to control. Type of data set: functional. The following applies: PANC-1, 672 h, read-out: TGI.
Data set [10] has as its system PANC-1. Description: Induction of apoptosis in human PANC-1 cells assessed as necrotic cells at 0.12 uM incubated for 48 hrs by Annexin V-FITC/PI staining based flow cytometry (reference value: 3.09 %). Type of data set: functional.
In data set [11] the test system is PANC-1. Description: Induction of cell cycle arrest in human PANC-1 cells assessed as accumulation at S phase at 1 uM incubated for 24 hrs by PI staining based flow cytometry (reference value: 38.94 %). It counts as functional.
A short description of data set [12]: Toxicity in BALB/c mouse xenografted with human PANC-1 cells assessed as animal morbidity at 20 mg/kg, ip for 4 weeks administered for 5 days consecutively and 2 days without treatment on every week in presence of OL. It counts as organism-based. The settings on record: in vivo, 672 h.
For data set [13], the system named is PANC-1. Description: Induction of apoptosis in human PANC-1 cells assessed as viable cells at 1 uM incubated for 48 hrs in presence of OL by Annexin V-FITC/PI staining based flow cytometry (reference value: 91.64 %). The following applies: read-out: Activity. Type of data set: functional.
Data set [14] concerns PANC-1. Description: Induction of apoptosis in human PANC-1 cells assessed as necrotic cells at 0.5 uM incubated for 48 hrs by Annexin V-FITC/PI staining based flow cytometry (reference value: 3.09 %). Type of data set: functional.
A short description of data set [15]: Toxicity in BALB/c mouse xenografted with human PANC-1 cells assessed as pathological changes in kidney at 20 mg/kg, ip for 4 weeks administered for 5 days consecutively and 2 days without treatment on every week by H and E staining based analysis. Type of data set: organism-based. The following applies: in vivo, 672 h.
Data set [16] is described as follows: Toxicity in BALB/c mouse xenografted with human PANC-1 cells assessed as drug tolerance at 20 mg/kg, ip for 4 weeks administered for 5 days consecutively and 2 days without treatment on every week in presence of OL. Type of data set: organism-based. The following applies: in vivo, 672 h.
The subject of data set [17] is PANC-1. Description: Induction of apoptosis in human PANC-1 cells assessed as late apoptotic cells at 0.25 uM incubated for 48 hrs by Annexin V-FITC/PI staining based flow cytometry (reference value: 3.87 %). Type of data set: functional.
The test system of data set [18] is PANC-1. Description: Induction of cell cycle arrest in human PANC-1 cells assessed as accumulation at G1 phase at 1 uM incubated for 24 hrs in presence of OL by PI staining based flow cytometry (reference value: 51.70 %). Type of data set: functional.
For data set [19], the system named is PANC-1. Description: Induction of apoptosis in human PANC-1 cells assessed as early apoptotic cells at 0.25 uM incubated for 48 hrs by Annexin V-FITC/PI staining based flow cytometry (reference value: 1.41 %). It counts as functional.
In data set [20] the target is T1, Protein cereblon/Poly [ADP-ribose] polymerase 1 (Homo sapiens, UniProt P09874+Q96SW2). Description: PROTAC activity at CRBN/PARP1 in human PANC-1 cells assessed as induction of PARP1 degradation incubated for 24 hrs by Western blot analysis. Type of data set: cell-based.
Data set [21] deals with PANC-1. Description: Induction of cell cycle arrest in human PANC-1 cells assessed as decrease in CDK6 level at 2 uM incubated for 24 hrs in presence of JQ1 by […]. It counts as functional.
In data set [22] the test system is PANC-1. Description: Induction of apoptosis in human PANC-1 cells assessed as decrease in Bcl-2 level at 2 uM incubated for 48 hrs in presence of JQ1 by Western blot analysis. It counts as functional, cell-based.
Data set [23] concerns the target T1, Protein cereblon/Poly [ADP-ribose] polymerase 1. Description: PROTAC activity at CRBN/PARP1 in human BXPC-3 cells assessed as induction of PARP1 degradation at 2 uM incubated for 24 hrs by immunofluorescence based analysis. It counts as cell-based.
Target sequence in this assay (P09874 2-1014 limits assumed): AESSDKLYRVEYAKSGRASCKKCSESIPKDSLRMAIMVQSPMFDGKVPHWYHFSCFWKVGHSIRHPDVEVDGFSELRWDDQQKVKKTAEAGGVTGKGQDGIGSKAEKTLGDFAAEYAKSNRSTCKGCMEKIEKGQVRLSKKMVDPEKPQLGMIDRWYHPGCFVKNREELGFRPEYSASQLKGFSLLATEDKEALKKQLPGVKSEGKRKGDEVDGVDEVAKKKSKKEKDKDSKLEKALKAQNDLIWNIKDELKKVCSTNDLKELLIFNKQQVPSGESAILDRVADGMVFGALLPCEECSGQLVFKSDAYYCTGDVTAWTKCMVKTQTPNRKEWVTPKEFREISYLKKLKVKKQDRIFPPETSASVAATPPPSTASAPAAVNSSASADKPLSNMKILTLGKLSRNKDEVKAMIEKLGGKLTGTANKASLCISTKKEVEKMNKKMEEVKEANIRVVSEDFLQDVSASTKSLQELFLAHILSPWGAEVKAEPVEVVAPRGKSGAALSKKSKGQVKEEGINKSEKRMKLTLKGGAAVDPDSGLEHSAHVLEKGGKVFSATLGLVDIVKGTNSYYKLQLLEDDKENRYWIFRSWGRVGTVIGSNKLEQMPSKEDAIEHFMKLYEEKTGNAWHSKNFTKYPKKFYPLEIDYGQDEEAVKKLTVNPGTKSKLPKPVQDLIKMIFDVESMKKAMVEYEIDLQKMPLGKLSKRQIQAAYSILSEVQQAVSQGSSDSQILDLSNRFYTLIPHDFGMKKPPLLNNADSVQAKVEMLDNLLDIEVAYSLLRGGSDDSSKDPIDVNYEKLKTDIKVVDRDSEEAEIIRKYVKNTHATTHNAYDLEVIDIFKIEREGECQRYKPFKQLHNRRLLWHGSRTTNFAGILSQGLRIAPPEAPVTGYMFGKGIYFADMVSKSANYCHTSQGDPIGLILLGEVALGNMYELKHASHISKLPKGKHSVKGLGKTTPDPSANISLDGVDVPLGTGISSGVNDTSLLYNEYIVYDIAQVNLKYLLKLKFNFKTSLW
Target sequence in this assay (Q96SW2 whole entry partner): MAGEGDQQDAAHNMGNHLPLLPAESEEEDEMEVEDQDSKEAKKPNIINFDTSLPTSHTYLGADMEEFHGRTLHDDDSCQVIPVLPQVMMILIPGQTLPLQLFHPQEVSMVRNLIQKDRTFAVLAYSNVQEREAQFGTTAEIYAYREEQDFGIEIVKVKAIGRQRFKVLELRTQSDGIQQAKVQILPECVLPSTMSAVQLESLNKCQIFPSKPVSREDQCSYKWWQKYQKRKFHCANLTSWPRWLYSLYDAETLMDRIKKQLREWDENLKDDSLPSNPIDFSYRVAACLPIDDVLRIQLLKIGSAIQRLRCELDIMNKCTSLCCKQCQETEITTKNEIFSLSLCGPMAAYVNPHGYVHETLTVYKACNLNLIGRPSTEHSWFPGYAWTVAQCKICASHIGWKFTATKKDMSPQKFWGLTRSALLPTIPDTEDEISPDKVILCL
Data set [24] concerns PANC-1. Description: Induction of cell cycle arrest in human PANC-1 cells assessed as decrease in CDK4 level at 2 uM incubated for 24 hrs in presence of JQ1 by […]. Type of data set: functional.
In data set [25] the target is T1, Protein cereblon/Poly [ADP-ribose] polymerase 1. Description: PROTAC activity at CRBN/PARP1 in human BXPC-3 cells assessed as induction of PARP1 degradation incubated for 24 hrs by Western blot analysis. Type of data set: cell-based.
Data set [26] concerns BXPC-3. Description: Synergistic antiproliferative activity against human BXPC-3 cells expressing wild-type BRCA assessed as inhibition of cell viability incubated for 5 days in presence of JQ1 by CCK8 assay. It counts as functional, cell-based. The following applies: time 5.0 day.
The subject of data set [27] is PANC-1. Description: Induction of apoptosis in human PANC-1 cells at 2 uM incubated for 48 hrs in presence of JQ1 by Annexin V-FITC/PI staining based flow cytometry relative to compound treatment alone. Type of data set: functional.
Data set [28] has as its target T1, Protein cereblon/Poly [ADP-ribose] polymerase 1. Description: PROTAC activity at CRBN/PARP1 in human PANC-1 cells assessed as induction of PARP1 degradation incubated for 24 hrs by Western blot analysis relative to control. Type of data set: cell-based.
Target sequence in this assay (P09874 2-1014 limits assumed): as the sequence (P09874 2-1014 limits assumed) above
Target sequence in this assay (Q96SW2 whole entry partner): as the sequence (Q96SW2 whole entry partner) above
For data set [29], the system named is PANC-1. Description: Induction of cell cycle arrest in human PANC-1 cells assessed as accumulation at G2/M phase at 2 uM incubated for 24 hrs in presence of JQ1 by PI staining based flow cytometry relative to control. Type of data set: functional.
The target of data set [30] is T1, Protein cereblon/Poly [ADP-ribose] polymerase 1. Description: PROTAC activity at CRBN/PARP1 in human BXPC-3 cells assessed as induction of PARP1 degradation incubated for 24 hrs by Western blot analysis relative to control. It counts as cell-based.
Target sequence in this assay (P09874 2-1014 limits assumed): as the sequence (P09874 2-1014 limits assumed) above
Target sequence in this assay (Q96SW2 whole entry partner): as the sequence (Q96SW2 whole entry partner) above
Data set [31] has as its system PANC-1. Description: Induction of cell cycle arrest in human PANC-1 cells assessed as decrease in cyclin D1 level at 2 uM incubated for 24 hrs in presence of JQ1 by […]. Type of data set: functional.

Calls of active or inactive are those of the source. The rule behind the calls is not given here.

For `O=C(c1cc(Cc2n[nH]c(=O)c3ccccc23)ccc1F)N1CCN(C(=O)C2CC2)CC1` [OLAPARIB], in [1], the CI is less than 1.
`Cc1sc2c(c1C)C(c1ccc(Cl)cc1)=N[C@@H](CC(=O)OC(C)(C)C)c1nnc(C)n1-2`: in data set [2], the inhibition entry is “Active”. Also, the Activity in [3] is reported as 10.56%; in data set [4] it was 5.44%; in data set [5], 38.89%; in [6], 3.99%; in data set [7] it was “Non-toxic”; in data set [8], 35.66%. For the same compound, the Activity in data set [10] is 2.94%; in [11], 26.24%; in [12], “Non-toxic”; in data set [14] it was 3.56%; in data set [15], “Non-toxic”; in [16], “Non-toxic”. In addition, the Activity in data set [17] turned out to be 4.07%; in data set [18], 58.42%; in [19] it was 4.08%. Also, the inhibition in vivo at 20 mg/kg in [9] turned out to be 80.7%. For the same compound, the viability at 1 µM in data set [13] was determined as 68.3%.
Consider `O=C1CCC(N2C(=O)c3cccc(NC(=O)CNCCCCCCCCCCC(=O)N4CCN(C(=O)c5cc(Cc6n[nH]c(=O)c7ccccc67)ccc5F)CC4)c3C2=O)C(=O)N1` (stereo not drawn), for which the DC50 in [20] turned out to be 2.55 nM; in [25], 4.74 nM. Also, the Activity entry in data set [20] (dose <= 10.0 µM) was “Dose-dependent-effect”; in [25] (dose <= 10.0 µM), “Dose-dependent-effect”; in [27], 20.5%; in data set [29], 8.3%. In addition, the outcome in data set [21], in data set [22], in data set [23], in data set [24] and in [31] was Active. The inhibition result in [26] was “Active”. Further, the Emax in [28] is greater than 95%; in data set [30] it was greater than 92%.
